Reference: US20260274892A1, “MACROCYCLIC BROAD SPECTRUM ANTIBIOTICS” (RQx Pharmaceuticals, Inc., priority 2017, published 2026)
Values belong to the compound of their own block, whether it stands above or below them.

System: Escherichia coli ATCC 25922
Test: Minimum inhibitory concentration (MIC), CLSI broth micro-dilution, E. coli
Format: cell-based
Conditions: Escherichia coli
Summary of the method: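 Antibacterial potency is measured as MIC by the CLSI broth dilution method. Bacteria at OD600 0.0005 in Tween-80-supplemented cation-adjusted Mueller Hinton broth face ten twofold compound dilutions for 22 h at 35° C.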

[1] = ATCC25922, 22 h, Table 7, cation adjusted Mueller Hinton Broth + 0.002% Tween-80, 35° C.
[2] = ATCC25922, Table 6, cation adjusted Mueller Hinton Broth + 0.002% Tween-80, 35° C., 22 hours
[3] = ATCC25922, Table 7, cation adjusted Mueller Hinton Broth + 0.002% Tween-80, 35° C., 22 hours
[4] = ATCC25922, 22 h, Table 6, cation adjusted Mueller Hinton Broth + 0.002% Tween-80, 35° C.

MIC [1]: 0.25 µM
SMILES: Cc1nc(-c2ccc(C(C)(C)C)cc2)nc(C)c1C(=O)N[C@@H](CNS(N)(=O)=O)C(=O)N(C)[C@@H]1C(=O)N[C@@H](C)C(=O)N[C@H](C(=O)NCC#N)Cc2ccc(OC[C@@H](O)CN)c(c2)-c2cc1ccc2OC[C@@H](O)CN (racemic) [Compound 581, rac-(8S,11S,14S)-N-(cyanomethyl)-11-methyl-14-[methyl-[rac-(2S)-2-[[2-(4-tert-butylphenyl)-4,6-dimethyl-pyrimidine-5-carbonyl]amino]-3-(sulfamoylamino)propanoyl]amino]-10,13-dioxo-3,18-bis[rac-(2S)-3-amino-2-hydroxy-propoxy]-9,12-diazatricyclo[13.3.1.12,6]icosa-1(18),2(20),3,5,15(19),16-hexaene-8-carboxamide]

SMILES: CCCCCOc1ccc(-c2ncc(C(=O)N[C@@H](CCN)C(=O)N(C)[C@@H]3C(=O)N[C@@H](C)C(=O)N[C@H](C(=O)NCC#N)Cc4ccc(OCCN)c(c4)-c4cc3ccc4OCCN)c(C)n2)cc1 (racemic) [Compound 241, rac-(8S,11S,14S)-3,18-bis(2-aminoethoxy)-N-(cyanomethyl)-11-methyl-14-[methyl-[rac-(2S)-4-amino-2-[[4-methyl-2-(4-pentoxyphenyl)pyrimidine-5-carbonyl]amino]butanoyl]amino]-10,13-dioxo-9,12-diazatricyclo[13.3.1.12,6]icosa-1(18),2(20),3,5,15(19),16-hexaene-8-carboxamide]
MIC [2]: 0.097 µM

SMILES: CC[C@H](NC(=O)c1c(C)nc(-c2ccc(OC3CCCCC3)cc2)nc1C)C(=O)N[C@@H](CCN)C(=O)N(C)[C@@H]1C(=O)N[C@@H](C)C(=O)N[C@H](C(=O)NCC#N)Cc2ccc(OCCN)c(c2)-c2cc1ccc2OCCN [Compound 510, (8S,11S,14S)-14-[[(2S)-4-amino-2-[[(2S)-2-[[2-[4-(cyclohexoxy)phenyl]-4,6-dimethyl-pyrimidine-5-carbonyl]amino]butanoyl]amino]butanoyl]-methyl-amino]-3,18-bis(2-aminoethoxy)-N-(cyanomethyl)-11-methyl-10,13-dioxo-9,12-diazatricyclo[13.3.1.12,6]icosa-1(18),2(20),3,5,15(19),16-hexaene-8-carboxamide]
MIC [2]: 1.5 µM

SMILES: Cc1nc(-c2ccc(C(C)(C)C)cc2)nc(C)c1C(=O)N[C@@H](CCN)C(=O)N(C)[C@@H]1C(=O)N[C@@H](C)C(=O)N[C@H](C(=O)NCC#N)Cc2cc(NC(N)=O)c(OCCN)c(c2)-c2cc1ccc2OCCN (racemic) [Compound 619, rac-(8S,11S,14S)-3,18-bis(2-aminoethoxy)-N-(cyanomethyl)-11-methyl-14-[methyl-[rac-(2S)-4-amino-2-[[2-(4-tert-butylphenyl)-4,6-dimethyl-pyrimidine-5-carbonyl]amino]butanoyl]amino]-10,13-dioxo-4-ureido-9,12-diazatricyclo[13.3.1.12,6]icosa-1(18),2(20),3,5,15(19),16-hexaene-8-carboxamide]
MIC [3]: 0.13 µM

SMILES: CCCCc1ccc(-c2cc(C)c(C(=O)N[C@@H](CCN)C(=O)N(C)[C@@H]3C(=O)N[C@@H](C)C(=O)N[C@H](C(=O)NCC#N)Cc4ccc(OCCN)c(c4)-c4cc3ccc4OCCN)c(C)n2)nc1 (racemic) [Compound 365, rac-(8S,11S,14S)-3,18-bis(2-aminoethoxy)-N-(cyanomethyl)-11-methyl-14-[methyl-[rac-(2S)-4-amino-2-[[6-(5-butyl-2-pyridyl)-2,4-dimethyl-pyridine-3-carbonyl]amino]butanoyl]amino]-10,13-dioxo-9,12-diazatricyclo[13.3.1.12,6]icosa-1(18),2(20),3,5,15(19),16-hexaene-8-carboxamide]
MIC [2]: 0.31 µM

MIC [4]: 1 µM
SMILES: Cc1nc(-c2ccc(C(C)(C)C)cc2)cc(OCC(N)=O)c1C(=O)N[C@@H](CCN)C(=O)N(C)[C@@H]1C(=O)N[C@@H](C)C(=O)N[C@H](C(=O)NCC#N)Cc2ccc(OCCN)c(c2)-c2cc1ccc2OCCN (racemic) [Compound 551, rac-(8S,11S,14S)-3,18-bis(2-aminoethoxy)-N-(cyanomethyl)-11-methyl-14-[methyl-[rac-(2S)-4-amino-2-[[4-(2-amino-2-oxo-ethoxy)-6-(4-tert-butylphenyl)-2-methyl-pyridine-3-carbonyl]amino]butanoyl]amino]-10,13-dioxo-9,12-diazatricyclo[13.3.1.12,6]icosa-1(18),2(20),3,5,15(19),16-hexaene-8-carboxamide]

MIC [1]: 0.5 µM
SMILES: Cc1nc(-c2ccc(C(C)(C)C)cc2)nc(C)c1C(=O)N[C@@H](CCN)C(=O)N(C)[C@@H]1C(=O)N[C@@H](C)C(=O)N[C@H](C(=O)NCC#N)Cc2ccc(OC3CCNCC3)c(c2)-c2cc1ccc2O (racemic) [Compound 609, rac-(8S,11S,14S)-N-(cyanomethyl)-18-hydroxy-11-methyl-14-[methyl-[rac-(2S)-4-amino-2-[[2-(4-tert-butylphenyl)-4,6-dimethyl-pyrimidine-5-carbonyl]amino]butanoyl]amino]-10,13-dioxo-3-(4-piperidyloxy)-9,12-diazatricyclo[13.3.1.12,6]icosa-1(18),2(20),3,5,15(19),16-hexaene-8-carboxamide]

SMILES: C=Cc1ccc(C#Cc2nc(C)c(C(=O)N[C@@H](CCN)C(=O)N(C)[C@@H]3C(=O)N[C@@H](C)C(=O)N[C@H](C(=O)NCC#N)Cc4ccc(OCCN)c(c4)-c4cc3ccc4OCCN)c(C)n2)cc1 (racemic) [Compound 310, rac-(8S,11S,14S)-3,18-bis(2-aminoethoxy)-N-(cyanomethyl)-11-methyl-14-[methyl-[rac-(2S)-4-amino-2-[[4,6-dimethyl-2-[2-(4-vinylphenyl)ethynyl]pyrimidine-5-carbonyl]amino]butanoyl]amino]-10,13-dioxo-9,12-diazatricyclo[13.3.1.12,6]icosa-1(18),2(20),3,5,15(19),16-hexaene-8-carboxamide]
MIC [2]: 0.53 µM

SMILES: Cc1nc(-c2cnc(OCCC(C)(C)C)nc2)nc(C)c1C(=O)N[C@@H](CCN)C(=O)N(C)[C@@H]1C(=O)N[C@@H](C)C(=O)N[C@H](C(=O)NCC#N)Cc2ccc(OCCN)c(c2)-c2cc1ccc2OCCN (racemic) [Compound 550, rac-(8S,11S,14S)-3,18-bis(2-aminoethoxy)-N-(cyanomethyl)-11-methyl-14-[methyl-[rac-(2S)-4-amino-2-[[2-[2-(3,3-dimethylbutoxy)pyrimidin-5-yl]-4,6-dimethyl-pyrimidine-5-carbonyl]amino]butanoyl]amino]-10,13-dioxo-9,12-diazatricyclo[13.3.1.12,6]icosa-1(18),2(20),3,5,15(19),16-hexaene-8-carboxamide]
MIC [4]: 2 µM

SMILES: C[C@@H]1NC(=O)[C@@H](N(C)C(=O)[C@H](CCN)NC(=O)c2cc([N+](=O)[O-])c(-c3ccc(C(C)(C)C)cc3)nc2N)c2ccc(OCCN)c(c2)-c2cc(ccc2OCCN)C[C@@H](C(=O)NCC#N)NC1=O (racemic) [Compound 415, rac-(8S,11S,14S)-3,18-bis(2-aminoethoxy)-N-(cyanomethyl)-11-methyl-14-[methyl-[rac-(2S)-4-amino-2-[[2-amino-6-(4-tert-butylphenyl)-5-nitro-pyridine-3-carbonyl]amino]butanoyl]amino]-10,13-dioxo-9,12-diazatricyclo[13.3.1.12,6]icosa-1(18),2(20),3,5,15(19),16-hexaene-8-carboxamide]
MIC [2]: 1.5 µM

SMILES: CCCCOc1c(F)c(F)c(-c2nc(C)c(C(=O)N[C@@H](CCN)C(=O)N(C)[C@@H]3C(=O)N[C@@H](C)C(=O)N[C@H](C(=O)NCC#N)Cc4ccc(OCCN)c(c4)-c4cc3ccc4OCCN)c(C)n2)c(F)c1F (racemic) [Compound 351, rac-(8S,11S,14S)-3,18-bis(2-aminoethoxy)-N-(cyanomethyl)-11-methyl-14-[methyl-[rac-(2S)-4-amino-2-[[2-(4-butoxy-2,3,5,6-tetrafluoro-phenyl)-4,6-dimethyl-pyrimidine-5-carbonyl]amino]butanoyl]amino]-10,13-dioxo-9,12-diazatricyclo[13.3.1.12,6]icosa-1(18),2(20),3,5,15(19),16-hexaene-8-carboxamide]
MIC [4]: 0.25 µM

SMILES: Cc1nc(-c2ccc(C(C)(C)C)cc2)nc(C)c1C(=O)N[C@@H](CCN)C(=O)N(C)[C@@H]1C(=O)N[C@@H](C)C(=O)N[C@H](C(=O)NCC#N)Cc2cc(OCCN)c(O)c(c2)-c2cc1ccc2OC[C@H](O)CN (racemic) [Compound 594, rac-(8S,11S,14S)-4-(2-aminoethoxy)-N-(cyanomethyl)-3-hydroxy-11-methyl-14-[methyl-[rac-(2S)-4-amino-2-[[2-(4-tert-butylphenyl)-4,6-dimethyl-pyrimidine-5-carbonyl]amino]butanoyl]amino]-10,13-dioxo-18-[rac-(2R)-3-amino-2-hydroxy-propoxy]-9,12-diazatricyclo[13.3.1.12,6]icosa-1(18),2(20),3,5,15(19),16-hexaene-8-carboxamide]
MIC [3]: 0.13 µM

MIC [1]: 0.75 µM
SMILES: Cc1nc(-c2ccc(C(C)(C)C)cc2)nc(C)c1C(=O)N[C@@H](CCN)C(=O)N(C)[C@@H]1C(=O)N[C@@H](C)C(=O)N[C@H](C(=O)NCC#N)Cc2ccc(OC[C@@H](N)CO)c(c2)-c2cc1ccc2O (racemic) [Compound 613, rac-(8S,11S,14S)-N-(cyanomethyl)-18-hydroxy-11-methyl-14-[methyl-[rac-(2S)-4-amino-2-[[2-(4-tert-butylphenyl)-4,6-dimethyl-pyrimidine-5-carbonyl]amino]butanoyl]amino]-10,13-dioxo-3-[rac-(2S)-2-amino-3-hydroxy-propoxy]-9,12-diazatricyclo[13.3.1.12,6]icosa-1(18),2(20),3,5,15(19),16-hexaene-8-carboxamide]
